Measurements published in PubChem BioAssay (NCI).
“And” between values parts separate entries of the source, which are not always exact repeats. Equal entries are not always repeated.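 Values below derive from 48-hour exposures of cells grown in 96-well plates, with endpoints linearly interpolated between the two concentrations bracketing the appropriate inhibition level. The concentration for 50% growth inhibition is given as GI50. TGI denotes the concentration required for complete inhibition of growth.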

Experiments:
Experiment in all cases: DTP human tumour cell line panel, 48 h
A549 NSCLC = test system: A549 NSCLC
HOP-92 NSCLC = test system: HOP-92 NSCLC
IGROV1 ovarian = test system: IGROV1 ovarian
K-562 leukemia = test system: K-562 leukemia
MDA-MB-231 breast = test system: MDA-MB-231 breast
OVCAR-4 ovarian = test system: OVCAR-4 ovarian
RPMI-8226 leukemia = test system: RPMI-8226 leukemia
SK-MEL-5 melanoma = test system: SK-MEL-5 melanoma
SN12C renal = test system: SN12C renal
U251 CNS = test system: U251 CNS

CCCCCc1c(C)[nH]c(/C=C2\N=C(c3ccc[nH]3)C=C2Oc2ccc(OC)cc2)c1C
GI50 (A549 NSCLC): 0.0339 µM
TGI (A549 NSCLC): 0.165 µM
GI50 (HOP-92 NSCLC): 0.145 µM and 0.0153 µM
TGI (HOP-92 NSCLC): 0.575 µM and 0.101 µM
GI50 (IGROV1 ovarian): 0.244 µM and 0.0925 µM
TGI (IGROV1 ovarian): 1.49 µM and 3.07 µM
GI50 (K-562 leukemia): 0.0719 µM and 0.0435 µM
TGI (K-562 leukemia): > 100 µM
GI50 (MDA-MB-231 breast): 0.0833 µM and 0.0117 µM
GI50 (OVCAR-4 ovarian): 0.15 µM and 0.0221 µM
TGI (OVCAR-4 ovarian): 2.02 µM
GI50 (RPMI-8226 leukemia): 0.0896 µM and 0.0313 µM
TGI (RPMI-8226 leukemia): 1.13 µM and 0.332 µM
GI50 (SK-MEL-5 melanoma): 0.0844 µM and 0.0187 µM
TGI (SK-MEL-5 melanoma): 0.217 µM and 0.0466 µM
GI50 (SN12C renal): 0.2 µM and 0.0483 µM
TGI (SN12C renal): 1.54 µM and 0.418 µM
GI50 (U251 CNS): 0.0811 µM and 0.026 µM

Cc1cc(CC(O)(C(F)(F)F)C(F)(F)F)cc(CC(O)(C(F)(F)F)C(F)(F)F)n1
TGI (A549 NSCLC): 10.9 µM
TGI (HOP-92 NSCLC): 5.48 µM
TGI (IGROV1 ovarian): 11.2 µM
TGI (K-562 leukemia): > 100 µM
TGI (MDA-MB-231 breast): 6.84 µM
TGI (OVCAR-4 ovarian): 12.6 µM
TGI (RPMI-8226 leukemia): 5.96 µM
TGI (SK-MEL-5 melanoma): 3.34 µM
TGI (SN12C renal): 9.25 µM
TGI (U251 CNS): 11.9 µM

Oc1ccc(Br)cc1CN1CCN(Cc2ccc(Cl)cc2)CC1
GI50 (A549 NSCLC): 25.1 µM
TGI (A549 NSCLC): > 100 µM
GI50 (HOP-92 NSCLC): 11.1 µM
TGI (HOP-92 NSCLC): 72.1 µM
GI50 (IGROV1 ovarian): 44.3 µM
TGI (IGROV1 ovarian): > 100 µM
GI50 (K-562 leukemia): 10.2 µM
TGI (K-562 leukemia): > 100 µM
GI50 (MDA-MB-231 breast): 17 µM
TGI (MDA-MB-231 breast): 59.4 µM
GI50 (OVCAR-4 ovarian): 11.8 µM
TGI (OVCAR-4 ovarian): 86.3 µM
GI50 (RPMI-8226 leukemia): 14.4 µM
TGI (RPMI-8226 leukemia): > 100 µM
GI50 (SK-MEL-5 melanoma): 13 µM
TGI (SK-MEL-5 melanoma): 26.4 µM
GI50 (SN12C renal): 27.1 µM
TGI (SN12C renal): > 100 µM
GI50 (U251 CNS): 27.7 µM
TGI (U251 CNS): > 100 µM

N=C(N)c1ccc(-c2ccc(-c3ccco3)o2)cc1
GI50 (A549 NSCLC): 4.76 µM
TGI (A549 NSCLC): 18.9 µM
GI50 (HOP-92 NSCLC): 1.38 µM
TGI (HOP-92 NSCLC): 4.7 µM
GI50 (IGROV1 ovarian): 4.38 µM
TGI (IGROV1 ovarian): 16.7 µM
GI50 (K-562 leukemia): 2.66 µM
TGI (K-562 leukemia): 10.4 µM
GI50 (MDA-MB-231 breast): 2.75 µM
TGI (MDA-MB-231 breast): 7.75 µM
GI50 (OVCAR-4 ovarian): 6.42 µM
TGI (OVCAR-4 ovarian): 24.1 µM
GI50 (RPMI-8226 leukemia): 2.51 µM
TGI (RPMI-8226 leukemia): 7.52 µM
GI50 (SK-MEL-5 melanoma): 2.67 µM
TGI (SK-MEL-5 melanoma): 9.76 µM
GI50 (SN12C renal): 5.97 µM
TGI (SN12C renal): 21.2 µM
GI50 (U251 CNS): 2.92 µM
TGI (U251 CNS): 11.8 µM

C=CC[n+]1c(/C=C2\Sc3ccccc3N2C)sc(-c2ccccc2)c1-c1ccccc1
GI50 (A549 NSCLC): 0.339 µM
TGI (A549 NSCLC): 11 µM
GI50 (HOP-92 NSCLC): 0.155 µM
TGI (HOP-92 NSCLC): 0.571 µM
GI50 (IGROV1 ovarian): 0.45 µM
TGI (IGROV1 ovarian): 13.7 µM
GI50 (K-562 leukemia): 0.344 µM
TGI (K-562 leukemia): 10 µM
GI50 (MDA-MB-231 breast): 0.287 µM
TGI (MDA-MB-231 breast): 2.99 µM
GI50 (OVCAR-4 ovarian): 0.274 µM
TGI (OVCAR-4 ovarian): 11.9 µM
GI50 (RPMI-8226 leukemia): 0.25 µM
TGI (RPMI-8226 leukemia): 0.987 µM
GI50 (SK-MEL-5 melanoma): 0.173 µM
TGI (SK-MEL-5 melanoma): 0.32 µM
GI50 (SN12C renal): 0.298 µM
TGI (SN12C renal): 1.47 µM
GI50 (U251 CNS): 0.315 µM
TGI (U251 CNS): 12.4 µM

COc1cc2c(cc1OC)[C@@H]1[C@H](C2=O)c2ccc([N+](=O)[O-])cc2C(=O)N1CCCBr
TGI (A549 NSCLC): 4.02 µM
GI50 (HOP-92 NSCLC): 3.15 µM
TGI (HOP-92 NSCLC): > 100 µM
GI50 (IGROV1 ovarian): < 0.01 µM
TGI (IGROV1 ovarian): 1.93 µM
GI50 (K-562 leukemia): 1.26 µM
TGI (K-562 leukemia): > 100 µM
GI50 (MDA-MB-231 breast): 1.45 µM
TGI (MDA-MB-231 breast): 6.61 µM
GI50 (OVCAR-4 ovarian): 2.4 µM
TGI (OVCAR-4 ovarian): > 100 µM
GI50 (RPMI-8226 leukemia): 0.145 µM
TGI (RPMI-8226 leukemia): 1.87 µM
GI50 (SK-MEL-5 melanoma): < 0.01 µM
TGI (SK-MEL-5 melanoma): 0.123 µM
GI50 (SN12C renal): 0.277 µM
TGI (SN12C renal): 0.934 µM
GI50 (U251 CNS): 0.134 µM
TGI (U251 CNS): 1.39 µM

COC1=C(NC(C)=O)C(=O)c2nc3n(c2C1=O)CCC3
TGI (A549 NSCLC): > 69.9 µM
TGI (HOP-92 NSCLC): 26.2 µM
TGI (IGROV1 ovarian): 35.6 µM
TGI (K-562 leukemia): > 65.1 µM
TGI (MDA-MB-231 breast): 27.1 µM
TGI (OVCAR-4 ovarian): 30.7 µM
TGI (RPMI-8226 leukemia): > 79.2 µM
TGI (SK-MEL-5 melanoma): 31.5 µM
TGI (SN12C renal): 32.3 µM
TGI (U251 CNS): > 59.9 µM

COc1ccc(NC(=O)CC(=O)n2nc(-c3ccccc3)c(N=Nc3ccc(C)cc3)c2-c2ccccc2)cc1
TGI (A549 NSCLC): 63.3 µM
TGI (HOP-92 NSCLC): 40.6 µM
TGI (IGROV1 ovarian): 49.9 µM
TGI (K-562 leukemia): > 100 µM
TGI (MDA-MB-231 breast): > 59.6 µM
TGI (OVCAR-4 ovarian): 53.8 µM
TGI (RPMI-8226 leukemia): > 100 µM
TGI (SK-MEL-5 melanoma): > 78.1 µM
TGI (SN12C renal): 81.9 µM
TGI (U251 CNS): 47.5 µM

COC1=CC(=O)c2c(O)c3c(c(O)c2C1=O)CC(C)(O)OC3 (configuration not stated)
TGI (A549 NSCLC): 8.8 µM
TGI (HOP-92 NSCLC): 10.5 µM
TGI (IGROV1 ovarian): 7.94 µM
TGI (K-562 leukemia): > 45.3 µM
TGI (MDA-MB-231 breast): > 41 µM
TGI (OVCAR-4 ovarian): 4.51 µM
TGI (RPMI-8226 leukemia): > 76.8 µM
TGI (SK-MEL-5 melanoma): 2.41 µM
TGI (SN12C renal): 14.2 µM
TGI (U251 CNS): 10.5 µM
